Experiments:
IL-6 mRNA = IL-6 mRNA expression in human fibroblasts; format: cell-based; conditions: for IL-6 mRNA elevation relative to a -actin control: 24 hours, p<0.05; for IL-6 mRNA expression increase relative to untreated control: 24 h, normalized to -actin (FIG. 1)
Experimental: (§1) mRNA Expression Experiments. Normal primary human fibroblasts obtained from the Coriell Institute (Camden, N.J.) were cultured in 70 mm dishes in DMEM supplemented with 10% FBS and 1× penicillin/streptomycin at 37° C. and 5% CO2. Human fibroblasts were incubated in the presence of the serum fractions, compound pDAG, the peptide moiety of pDAG, or diacylglycerol. In the initial experiments we examined the differences between fibroblasts treated with the various serum fractions, synthetic pDAG (the peptide moiety from pDAG or diacylglycerol), fibroblasts treated with LPS as a positive control, and fibroblasts without treatment. The culture medium was stored at −80° C. for ELISA of the excreted cytokine proteins (see below). Total RNA from fibroblasts was extracted using the RNeasy Mini kit (Qiagen, Valencia, Calif.) according to the manufacturer's protocol. To verify the expression of transcripts; 2.0 μg of total RNA was reverse-transcribed using Super-script-III reverse transcriptase (Invitrogen, Carlsbad Calif.), according to the manufacturer's protocol. Transcripts were quantified using SYBR Green PCR amplification (Perkin Elmer, Waltham Mass.). Primers employed in these studies are outlined in Table 6, below. All transcripts were normalized to β-actin. Briefly, 0.4 μg/μL of cDNA was tested with 10 μM of each specific primer and 1× SYBR Green in a total volume of 20 uL.
(§2) Lipofection Studies. Cells were cultured so that at the time of transfection they were 50-80% confluent. […] PLUS reagent (0.5 μL) and lipofectamine (1 μL) were then added to the peptide Opti-MEM solution, vortexed and incubated at room temperature for 30 min. Five hundred microliters of complete DMEM was added to the fibroblasts and 0.6 μL of the peptide/lipofectamine was added and allowed to incubate overnight. RNA was extracted and processed as described above.
(§3) Bioassays. The fractions generated from dialysis (methanol/chloroform soluble, methanol/chloroform insoluble, dialysis retentate, and the fractions collected from reversed phase HPLC) were taken to dryness by lyophilization. The freeze-dried solids were weighed and dissolved in the appropriate volume of deionized water to give a final concentration of 1 mg/mL and assayed for mRNA expression (IL-6, IL-8, MIP1α, and MIP1β) in human fibroblasts.

MCP-1 mRNA = MCP-1 mRNA expression in human fibroblasts; format: cell-based; conditions: for MCP-1 mRNA increase: relative to -actin; for MCP-1 expression in fibroblasts (in words): peptide transfected
Experimental: as §1, §3

MIP-1 mRNA = MIP-1 mRNA expression in human fibroblasts; format: cell-based; conditions: for MIP-1 mRNA expression increase: natural pDAG 1:100 dilution, relative to -actin; for MIP-1α expression in fibroblasts (in words): peptide transfected
Experimental: as §1, §3

Lability to hydrolysis = format: physicochemical; conditions: acidic and basic conditions
Experimental: The C8 RP-HPLC peaks eluting between 4.83 and 9.36 min. in a non-purified fraction containing compound pDAG are hydrolysis products of compound pDAG. Therefore, the classical degradation approach to natural product structure elucidation was used. The purified compound pDAG (as a tryptophan complex) was subjected to mild acid hydrolysis, in situ N-terminal sulfonation, and analysis of the hydrolysis products to identify peptide fragments that would account for the entire structure of pDAG.
Hydrolysis and Derivatization of the Natural Product (pDAG). […] Therefore, […] of native pDAG was subjected to mild acid hydrolysis conditions (1 N HCl in phosphate buffered saline) for 18 hours at 25° C. The post-reaction buffer salts were removed using a C18 spin column (ThermoFisher Scientific) and the hydrolysis products were eluted from the column using 50% CH3CN/0.1% TFA. The final product was brought to dryness by evaporation in vacuo at 4° C. The hydrolysis products were derivatized using the N-terminal sulfonation reagent, 4-sulfophenylisothiocyanate, and analyzed in situ by MALDITOF in an -cyano-4-hydroxycinnamic acid matrix using the method described by Wang. See Wang, D.; Kalb, S. R.; Cotter, R. J. Rapid Commun. Mass Spectrom. 2004, 18, 96-102.

IL-8 mRNA = IL-8 mRNA expression in human fibroblasts; format: cell-based
Experimental: as §1, §2
Bioassays. The fractions generated from dialysis (methanol/chloroform soluble, methanol/chloroform insoluble, dialysis retentate, and the fractions collected from reversed phase HPLC) were taken to dryness by lyophilization. […]

IL-8 protein = assay: ELISA for secreted IL-8 protein from human fibroblasts; format: cell-based; conditions: 0.3 to 3 ng/mL
Experimental: Fibroblasts were treated with various concentrations of synthetic pDAG for 24 hours; the media were reserved for ELISA assays of IL-6 and IL-8, and mRNA was extracted from the cells to measure all four cytokines IL-6 mRNA was elevated 20% in response to synthetic pDAG and 40% with natural pDAG relative to a -actin control (p<0.05). […] Compound pDAG induced IL-8 expression by about 5-fold compared to untreated fibroblasts, in dose-response studies (FIG. 2). […] The MCP-1 and MIP-1 mRNA expression in human fibroblasts incubated with approximately equivalent amounts of natural pDAG (1:100 dilution) and synthetic pDAG (3 ng/mL). Both synthetic pDAG and the natural product induced a 3-fold increase in MCP-1 mRNA relative to the -actin control and increased MIP-1α mRNA expression relative to -actin by 15% (FIG. 3).
ELISA for IL-8 Protein. Human IL-8 was measured by ELISA according to the manufacturer's specifications (eBioscience San Diego, Calif.) in the supernatants of fibroblasts cultured in complete DMEM with varying amounts of pDAG. Briefly, high affinity binding plates were coated with anti-human IL-8 overnight at 4° C. Wells were washed with Wash Buffer five times at 1 min. each wash and blocked with Assay Diluent for 60 min. at room temp. […] The reaction was halted with Stop Solution and the plate read at 450 nm with wavelength subtraction at 570 nm.

IL-33 mRNA = IL-33 mRNA expression in human fibroblasts; format: cell-based
Experimental: Therefore we speculated that the diacylglycerol moiety enabled the peptide to cross the cell membrane. To test this hypothesis and to ascertain the biological role of the diacylglycerol moiety in compound pDAG, if any, the peptide moiety transfected into human fibroblasts or diacylglycerol alone were evaluated by measuring the expression of mRNA (IL-1, IL-6, IL-8, IL-18, and IL-33). […] Diacylglycerol could stimulate mRNA expression of IL-33 and IL-18, but not IL-1 in fibroblasts. […] Normal primary human fibroblasts obtained from the Coriell Institute (Camden, N.J.) were cultured in 70 mm dishes in DMEM supplemented with 10% FBS and 1× penicillin/streptomycin at 37° C. and 5% CO2. Human fibroblasts were incubated in the presence of the serum fractions, compound pDAG, the peptide moiety of pDAG, or diacylglycerol. In the initial experiments we examined the differences between fibroblasts treated with the various serum fractions, synthetic pDAG (the peptide moiety from pDAG or diacylglycerol), fibroblasts treated with LPS as a positive control, and fibroblasts without treatment. The culture medium was stored at −80° C. for ELISA of the excreted cytokine proteins (see below). […] Transcripts were quantified using SYBR Green PCR amplification (Perkin Elmer, Waltham Mass.). […]

IL-18 mRNA = IL-18 mRNA expression in human fibroblasts; format: cell-based
Experimental: as §1, with “Therefore we speculated that the diacylglycerol moiety enabled the peptide to cross the cell membrane. To test this hypothesis and to ascertain the biological role of the diacylglycerol moiety in compound pDAG, if any, the peptide moiety transfected into human fibroblasts or diacylglycerol alone were evaluated by measuring the expression of mRNA” for “mRNA”, “(IL-1, IL-6, IL-8, IL-18, and IL-33). […] Diacylglycerol could stimulate mRNA expression of IL-33 and IL-18, but not IL-1 in fibroblasts. […]” for “Expression Experiments.”, “uL. Lipofection Studies. Cells were cultured so that at the time of transfection they were 50-80% confluent. Five microliters of the stock peptide moiety from pDAG was diluted in Opti-MEM Reduced Serum Medium to give a final concentration of 5 μg/mL. PLUS reagent (0.5 μL) and lipofectamine (1 μL) were then added to the peptide Opti-MEM solution, vortexed and incubated at room temperature for 30 min. Five hundred microliters of complete DMEM was added to the fibroblasts and 0.6 μL of the peptide/lipofectamine was added and allowed to incubate overnight. RNA was extracted and processed as described above.” for “uL.”

IL-1 mRNA = IL-1 mRNA expression in human fibroblasts; format: cell-based
Experimental: as §1, with “Therefore we speculated that the diacylglycerol moiety enabled the peptide to cross the cell membrane. To test this hypothesis and to ascertain the biological role of the diacylglycerol moiety in compound pDAG, if any, the peptide moiety transfected into human fibroblasts or diacylglycerol alone were evaluated by measuring the expression of mRNA” for “mRNA”, “(IL-1, IL-6, IL-8, IL-18, and IL-33). […] Diacylglycerol could stimulate mRNA expression of IL-33 and IL-18, but not IL-1 in fibroblasts. […]” for “Expression Experiments.”, “uL. Lipofection Studies. Cells were cultured so that at the time of transfection they were 50-80% confluent. Five microliters of the stock peptide moiety from pDAG was diluted in Opti-MEM Reduced Serum Medium to give a final concentration of 5 μg/mL. […]” for “uL.”

[1] = tested on: established bacterial and viral infections; assay: Administration to cows, number of white blood cells; format: in vivo; conditions: various amounts
[2] = tested on: established bacterial and viral infections; assay: Administration to dogs, survival rate; format: in vivo; conditions: various amounts
IgM production = assay: Administration to rabbits, adjuvant effect on IgM production; format: in vivo; conditions: administered with other drugs
C. pneumonia = C. pneumonia load in THP-1 cells; format: cell-based; conditions: 25 ng/ml and 50 ng/ml
Source text: The pDAG produced in accordance with the invention is believed to induce fibroblast IL-6 expression similar to that of the natural product, and to induce fibroblast IL-8 mRNA and protein expression, to increase MCP-1 expression and to induce MIP-1alpha.

HBV = HBV viral load in hepatocytes; format: cell-based; conditions: 25 to 400 ng/ml
human fibroblasts = assay: Inflammatory cytokine and chemokine production by human fibroblasts (overall stimulation); format: cell-based
Experimental: as §1
Lipofection Studies. Cells were cultured so that at the time of transfection they were 50-80% confluent. […] PLUS reagent (0.5 μL) and lipofectamine (1 μL) were then added to the peptide Opti-MEM solution, vortexed and incubated at room temperature for 30 min. Five hundred microliters of complete DMEM was added to the fibroblasts and 0.6 μL of the peptide/lipofectamine was added and allowed to incubate overnight.

[3] = increasing concentrations of synthetic pDAG
[4] = transfected peptide 10 ng/mL (~3 nM)

For “1-peptidyl-2-arachidonoyl-3-stearoyl glyceride [natural pDAG]”, the “IL-6 mRNA elevation relative to a -actin control” value (IL-6 mRNA) was 40%, the “IL-6 mRNA expression increase relative to untreated control” value (IL-6 mRNA; natural pDAG 1:100 dilution) was ~30% and the “MCP-1 mRNA increase” value (MCP-1 mRNA; natural pDAG 1:100 dilution) was 3 fold. For the same compound, the “MIP-1 mRNA expression increase” value (MIP-1 mRNA) was ~60%, the “MIP-1 mRNA expression increase” value (MIP-1 mRNA; listed as natural product) was 15% and the lability to hydrolysis (Lability to hydrolysis; listed as Native pDAG) was “labile to acid hydrolysis”. The lability to hydrolysis (Lability to hydrolysis; listed as serum-derived compound pDAG) was “especially labile to hydrolysis”.

In the case of “1-peptidyl-2-arachidonoyl-3-stearoyl glyceride [pDAG]”, the “IL-6 mRNA elevation relative to a -actin control” value (IL-6 mRNA; listed as synthetic pDAG) is reported as 20%, the “IL-6 mRNA expression increase relative to untreated control” value (IL-6 mRNA; synthetic pDAG 5 ng/mL) is reported as ~30% and the “IL-8 expression induction compared to untreated fibroblasts” value (IL-8 mRNA; dose-response studies (FIG. 2), 24 hours) is reported as “about 5 fold”. For the same compound, the “IL-8 mRNA expression dose response” value (IL-8 mRNA; [3]) was “negative dose response”, the “concentration giving maximal effect (EC99) on secreted IL-8” value (IL-8 protein; ELISA, 24 hours) was 3 ng/mL and the “secreted IL-8 protein dose response” value (IL-8 protein; [3]) was “positive linear dose response”. The “MCP-1 expression in fibroblasts (in words)” value (MCP-1 mRNA) was “increased expression”, the “MCP-1 mRNA increase” value (MCP-1 mRNA; synthetic pDAG 3 ng/mL) was 3 fold and the “MIP-1α expression in fibroblasts (in words)” value (MIP-1 mRNA) was “increased expression”. The “induction of IL-33” value (IL-33 mRNA) was “found to induce”, the “induction of IL-18” value (IL-18 mRNA) was “found to induce” and the “induction of IL-1alpha” value (IL-1 mRNA) was “found to induce”. For the same compound, the “induction of IL-1beta” value (IL-1 mRNA) was “found to induce”, the “reduction of the number of white blood cells” value [1] was “nearly threefold” and the “survival rate compared with untreated dogs” value [2] was “over doubling the survival rate”. For the same compound, the “adjuvant effect in terms of IgM production” value (IgM production) was “significant adjuvant effect”, the C. pneumonia load (C. pneumonia) was “reduction of C. pneumonia load” and the HBV viral load (HBV) was “reduction of HBV viral load”. The “EC99 (apparent / possible maximum effective concentration)” value (human fibroblasts; pDAG, human fibroblasts, cytokine and chemokine production) was 3 ng/mL and the EC99 (human fibroblasts; pDAG, signaling in human fibroblasts) was ~1 nM.

In the case of `CCCCC/C=C\C/C=C\C/C=C\C/C=C\CCCC(=O)O[C@@H](CO)COC(=O)CCCCCCCCCCCCCCCCC` [diacylglycerol, 1-stearoyl-2-arachidonoyl-sn-glycerol, reference compound], the “increase in IL-18 mRNA expression” value (IL-18 mRNA; diacylglycerol alone, ~30 nM) is reported as 20%.

With “acALYDKGYTSKEQKDCVGI [peptide moiety of pDAG]” the “IL-6 mRNA vs untreated or lipofectamine-only fibroblasts” value (IL-6 mRNA; [4]) was “substantially increased”, the “IL-8 mRNA vs untreated or lipofectamine-only fibroblasts” value (IL-8 mRNA; [4]) was “substantially increased” and the “MCP-1 expression in fibroblasts (in words)” value (MCP-1 mRNA) was “increased expression”. The “MIP-1α expression in fibroblasts (in words)” value (MIP-1 mRNA) was “increased expression”, the “IL-33 mRNA vs untreated or lipofectamine-only fibroblasts” value (IL-33 mRNA; [4]) was “substantially increased” and the “IL-18 mRNA vs untreated or lipofectamine-only fibroblasts” value (IL-18 mRNA; [4]) was “substantially increased”. The “increase in IL-18 mRNA expression” value (IL-18 mRNA; transfected peptide, ~10 nM) was > 3 fold, the “IL-1 mRNA vs untreated or lipofectamine-only fibroblasts” value (IL-1 mRNA; [4]) was “substantially increased” and the “fold higher concentration than pDAG needed for comparable responses” value (human fibroblasts; peptide moiety, not transfected) was 1,000 fold.
